The values below come from patent US12441703B2, “Carboxamides as modulators of sodium channels” (VERTEX PHARMACEUTICALS INCORPORATED, priority 2019, dated 2025).

The target of the experiment is human NaV 1.8 (Homo sapiens, UniProt Q9Y5Y9). Description: E-VIPR assay for detecting and measuring NaV inhibition properties. Type of experiment: cell-based. Conditions: E-VIPR assay conducted in the presence of human serum; HEK cells expressing truncated human NaV 1.8; read-out: IC50. The gist of the method: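 Membrane-potential (coumarin/oxonol) readout after 10 s of 10 Hz biphasic electrical stimulation on E-VIPR. Compounds: 11-point 3-fold dilutions, […], 0.625% DMSO, 30 min at room temperature, human serum optional. Cells: HEK expressing truncated human NaV1.8 co-transduced with KIR2.1.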
Sequence of human NaV 1.8 (Q9Y5Y9 whole entry, looked up, the tested form may be a part): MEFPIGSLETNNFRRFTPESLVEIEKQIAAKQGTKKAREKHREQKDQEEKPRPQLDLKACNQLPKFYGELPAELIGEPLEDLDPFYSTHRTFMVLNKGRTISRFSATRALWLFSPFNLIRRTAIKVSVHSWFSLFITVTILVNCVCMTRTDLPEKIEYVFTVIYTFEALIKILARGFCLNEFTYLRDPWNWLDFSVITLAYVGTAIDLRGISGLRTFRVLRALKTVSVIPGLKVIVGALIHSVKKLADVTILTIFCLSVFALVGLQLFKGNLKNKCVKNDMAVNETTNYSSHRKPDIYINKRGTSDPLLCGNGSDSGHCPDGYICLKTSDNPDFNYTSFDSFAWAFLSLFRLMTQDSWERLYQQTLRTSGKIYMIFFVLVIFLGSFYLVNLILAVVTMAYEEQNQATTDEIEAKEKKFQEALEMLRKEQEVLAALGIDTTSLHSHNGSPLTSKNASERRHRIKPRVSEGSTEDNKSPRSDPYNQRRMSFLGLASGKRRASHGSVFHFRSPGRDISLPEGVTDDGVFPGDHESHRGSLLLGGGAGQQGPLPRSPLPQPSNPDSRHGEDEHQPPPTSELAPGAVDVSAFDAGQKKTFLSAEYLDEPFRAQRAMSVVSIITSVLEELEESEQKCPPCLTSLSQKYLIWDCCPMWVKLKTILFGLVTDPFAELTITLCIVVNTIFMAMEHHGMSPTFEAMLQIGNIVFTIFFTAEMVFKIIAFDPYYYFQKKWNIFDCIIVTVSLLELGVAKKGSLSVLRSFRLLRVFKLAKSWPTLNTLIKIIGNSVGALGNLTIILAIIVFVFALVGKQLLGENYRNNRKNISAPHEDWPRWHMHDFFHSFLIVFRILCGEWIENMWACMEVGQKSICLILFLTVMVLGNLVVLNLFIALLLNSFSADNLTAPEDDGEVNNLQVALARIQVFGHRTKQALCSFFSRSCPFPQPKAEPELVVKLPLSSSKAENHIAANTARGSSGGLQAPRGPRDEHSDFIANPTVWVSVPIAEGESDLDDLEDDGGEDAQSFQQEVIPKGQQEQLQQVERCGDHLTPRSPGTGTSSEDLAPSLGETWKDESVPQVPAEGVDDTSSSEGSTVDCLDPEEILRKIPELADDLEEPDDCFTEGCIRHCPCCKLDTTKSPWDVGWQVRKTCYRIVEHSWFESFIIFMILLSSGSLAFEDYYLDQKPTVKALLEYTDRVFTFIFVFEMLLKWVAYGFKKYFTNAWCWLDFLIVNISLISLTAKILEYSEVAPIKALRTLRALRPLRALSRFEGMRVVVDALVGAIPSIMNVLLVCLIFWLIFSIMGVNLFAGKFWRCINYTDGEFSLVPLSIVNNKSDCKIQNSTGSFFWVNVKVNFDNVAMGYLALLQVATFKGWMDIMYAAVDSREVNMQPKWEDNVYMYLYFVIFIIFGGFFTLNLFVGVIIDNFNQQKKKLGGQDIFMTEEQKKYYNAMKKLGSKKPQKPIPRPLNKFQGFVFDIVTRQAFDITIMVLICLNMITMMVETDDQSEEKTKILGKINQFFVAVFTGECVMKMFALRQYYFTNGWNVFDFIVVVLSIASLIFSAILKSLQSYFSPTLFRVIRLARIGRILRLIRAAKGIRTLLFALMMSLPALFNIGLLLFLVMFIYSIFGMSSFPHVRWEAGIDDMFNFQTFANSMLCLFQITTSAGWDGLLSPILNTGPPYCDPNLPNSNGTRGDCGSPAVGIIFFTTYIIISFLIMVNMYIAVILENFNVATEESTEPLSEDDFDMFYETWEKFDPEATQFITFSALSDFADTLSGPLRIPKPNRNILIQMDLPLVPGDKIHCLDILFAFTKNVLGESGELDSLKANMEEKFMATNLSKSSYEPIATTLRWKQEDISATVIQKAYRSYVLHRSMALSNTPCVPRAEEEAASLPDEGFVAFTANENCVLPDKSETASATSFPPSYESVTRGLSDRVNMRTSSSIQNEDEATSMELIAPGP
For orientation: IC50 means the point on the concentration scale where inhibition reaches its midpoint. `COc1cc(OC(F)(F)F)ccc1Oc1cc(C(F)(F)F)cc(Br)c1C(=O)Nc1ccnc(C(N)=O)c1` [Compound 255, 4-[[2-bromo-6-[2-methoxy-4-(trifluoromethoxy)phenoxy]-4-(trifluoromethyl)benzoyl]amino]pyridine-2-carboxamide]: the IC50 was more than 3000 nM.

`NC(=O)c1cc(NC(=O)c2cc(Cl)ccc2Oc2ccc(OC(F)(F)F)cn2)ccc1F` [Compound 256, 5-[[5-chloro-2-[[5-(trifluoromethoxy)-2-pyridyl]oxy]benzoyl]amino]-2-fluoro-benzamide]: the IC50 is more than 3000 nM. `COc1cc(OC(F)(F)F)ccc1Oc1ccc(C2CCC2)c(C)c1C(=O)Nc1ccnc(C(N)=O)c1` [Compound 257, 4-[[3-cyclobutyl-6-[2-methoxy-4-(trifluoromethoxy)phenoxy]-2-methyl-benzoyl]amino]pyridine-2-carboxamide]: the IC50 is 8 nM.

Consider `COc1c(C(F)(F)F)ccc(Oc2cccc(C3CCCCC3)c2)c1C(=O)Nc1ccnc(C(N)=O)c1` [Compound 258, 4-[[6-(3-cyclohexylphenoxy)-2-methoxy-3-(trifluoromethyl)benzoyl]amino]pyridine-2-carboxamide], for which the IC50 is more than 3000 nM. Consider `COc1cc(OC(F)(F)F)ccc1Oc1ccc(F)c(F)c1C(=O)Nc1ccnc(C(N)=O)c1` [Compound 259, 4-[[2,3-difluoro-6-[2-methoxy-4-(trifluoromethoxy)phenoxy]benzoyl]amino]pyridine-2-carboxamide], for which the IC50 was determined as 59 nM. With `COc1cc(OC(F)(F)F)ccc1Oc1ccc(F)c(F)c1C(=O)Nc1cc(C(N)=O)ncc1C` [Compound 260, 4-[[2,3-difluoro-6-[2-methoxy-4-(trifluoromethoxy)phenoxy]benzoyl]amino]-5-methyl-pyridine-2-carboxamide], the IC50 is 66 nM. Then `COc1cc(OC(F)(F)F)ccc1Oc1ccc(Cl)c(C)c1C(=O)Nc1ccnc(C(N)=O)c1` [Compound 261, 4-[[3-chloro-6-[2-methoxy-4-(trifluoromethoxy)phenoxy]-2-methyl-benzoyl]amino]pyridine-2-carboxamide], with 8 nM. On to `COc1cc(OC(F)(F)F)ccc1Oc1cc(F)c(F)c(F)c1C(=O)Nc1cnc(C(N)=O)nc1` [Compound 262, 5-[[2,3,4-trifluoro-6-[2-methoxy-4-(trifluoromethoxy)phenoxy]benzoyl]amino]pyrimidine-2-carboxamide], for which the IC50 is 50 nM. Consider `COc1cc(OC(F)(F)F)ccc1Oc1cc(OC)c(F)c(F)c1C(=O)Nc1ccnc(C(N)=O)c1` [Compound 263, 4-[[2,3-difluoro-4-methoxy-6-[2-methoxy-4-(trifluoromethoxy)phenoxy]benzoyl]amino]pyridine-2-carboxamide], for which the IC50 is 20 nM. Take `COc1cc(OC(F)(F)F)ccc1Oc1cc(C2CC2)c(F)c(C)c1C(=O)Nc1ccnc(C(N)=O)c1` [Compound 264, 4-[[4-cyclopropyl-3-fluoro-6-[2-methoxy-4-(trifluoromethoxy)phenoxy]-2-methyl-benzoyl]amino]pyridine-2-carboxamide]: the IC50 was determined as 52 nM. With `COc1cc(OC(F)(F)F)ccc1Oc1cc(OC)c(Cl)c(C)c1C(=O)Nc1ccnc(C(N)=O)c1` [Compound 265, 4-[[3-chloro-4-methoxy-6-[2-methoxy-4-(trifluoromethoxy)phenoxy]-2-methyl-benzoyl]amino]pyridine-2-carboxamide] the figure was 35 nM; with `COc1cc(OC(F)(F)F)ccc1Oc1cc(OC)c(Cl)c(F)c1C(=O)Nc1ccnc(C(N)=O)c1` [Compound 266, 4-[[3-chloro-2-fluoro-4-methoxy-6-[2-methoxy-4-(trifluoromethoxy)phenoxy]benzoyl]amino]pyridine-2-carboxamide], 2.8 nM; with `COc1cc(OC(F)(F)F)ccc1Oc1cc(Cl)cc(F)c1C(=O)Nc1cc(C(N)=O)[n+]([O-])cc1C` [Compound 267, 4-[[4-chloro-2-fluoro-6-[2-methoxy-4-(trifluoromethoxy)phenoxy]benzoyl]amino]-5-methyl-1-oxido-pyridin-1-ium-2-carboxamide], 84 nM.
